Measurements as given in patent US20210275514A1, “COMPOUNDS FOR USE IN TREATING KIDNEY DISORDERS” (Hoffmann-La Roche Inc., priority 2018, published 2021).
Entries after “also recorded” stand apart in the source; their conditions may differ.

Key:
[1] = system: differentiated human podocytes; assay: Compound cytotoxicity in differentiated human podocytes (ApoTox-Glo Triplex Assay); assay type: cell-based; settings: 18 h
Description: Podocytes were seeded in 96-well plates (Greiner) and allowed to differentiate for 14 days. Cells were then washed with PBS, and incubated with media (RPMI-0.2% BSA) with or without vehicle and compounds for 18 h at 37° C., 5% CO2. Compound concentrations tested were 1 μM, 5 μM, 10 μM and 20 μM. Vehicle (DMSO) final concentration was 0.1%. All treatments were done in duplicates. Cytotoxicity was assayed using ApoTox-Glo Triplex Assay (Promega) following manufacturer's instructions. Briefly, cell-permeant (GF-AFC) and cell impermeant (bis-AAF-R110) peptide substrates were diluted and added to all wells and the cells were incubated at 37° C., 5% CO2 for 1 hr. A set of cells were treated with saponin (2 mg/ml) as a positive control of cell cytotoxicity. Cell viability and cytotoxicity fluorescence signals were measured at 400 nm/505 nm and 485 nm/520 nm Excitation/Emission, respectively using a fluorescence microplate reader (SpectraMax i3). RFU signal obtained with the cell toxicity substrate was normalized to the one obtained with the viable substrate in the same well to eliminate the effect of different cell numbers per well.

[2] = system: ADR-induced nephropathy in Balb/c mice; assay: Adriamycin-induced kidney damage, second experiment, 28 days; assay type: in vivo, mouse; settings: for TOTAL CHOL (blood) / TRIGLYCERIDES (blood): 28 days after ADR injection; for Albuminuria / Body weight loss: 4 weeks after ADR
Description: A second experiment was repeated to confirm the improvement of renal function attained with the doses of Cpd A and G in the first experiment. Briefly, 30 female Balb/c mice of 8 weeks age were injected with 12 mg/Kg of ADR by via tail vein and the mice were randomly distributed into 5 groups of 6 animals each. Animals were given vehicle or compounds by oral gavage once daily for 28 days starting one day after ADR injection. The following doses of compounds were tested: Cpd C, 10 mg/Kg/day; Cpd A, 30 mg/Kg/day and Cpd G, 30 mg/Kg/day and 100 mg/Kg/day. A group of 5 animals that received saline solution via tail vein injection and were treated with vehicle were used as healthy baseline control. Body weight measurements and spot urine collection was done once a week. Animals were sacrificed 28 days after ADR injection (FIG. 2).
(§1) Spot urine samples were collected for all mice at baseline and time of sacrifice. Urinary albumin and creatinine were determined using an albumin ELISA kit (Bethyl laboratories) and a colorimetric assay for creatinine determination (Stanbio). Albuminuria was calculated and expressed as μg of albumin divided by mg of creatinine. For diabetic mouse model, weight and glycaemia were measured on a bi-weekly basis.
At time of sacrifice blood was collected in heparinized tubes and mice were perfused via left ventricle perfusion with isotonic saline solution. Kidney cortex was carefully excised and further sectioned for the fallowing analysis: determination of podocyte number, lipid droplet staining, electron microscopy (EM), renal lipids content assays, PAS& HE staining for pathological evaluation.
(§2) Lipid droplet staining Filtered Oil-Red O-Isopropanol solution (Electron Microscopy Science, PA) was diluted with water (6:4). 4 μm kidney sections were incubated with 100 μl freshly prepared Oil-Red O solution (ORO) for 15 minutes and counterstained with Hematoxylin Harris Hg Free (VWR, PA) to detect lipid deposition. Glomeruli staining was evaluated using a light microscope (Olympus BX 41, Tokyo, Japan).
(§3) Renal lipids species assays. Kidney cortex sections were snap frozen and utilized for lipid extraction and cholesterol content determination. The tissue was homogenized in 2 mM potassium phosphate buffer in a glass douncer on ice. Lipids in 100 μl homogenate (˜5-10 mg tissue) were extracted with 1 ml hexane:isopropanol (3:2) for two sequential 30-minute extractions. The solvent containing lipids was then dried in Nitrogen atmosphere. Lipids were then reconstituted using isopropanol: NP-40 (9:1) and cholesterol content was quantified using the Amplex red cholesterol assay kit (Invitrogen) according to the manufacturers protocol. Triglycerides in lipid extracts were assayed with a colorimetric kit according to manufacturer's instructions (Cayman). Total cholesterol and cholesterol esters were assayed using an enzymatic fluorometric method. For total cholesterol renal lipid extracts were diluted in assay buffer (100 mM potassium phosphate, 50 mM NaCl, 5 mM cholic acid, 0.1% […], pH 7.4) and incubated with same buffer supplemented with a final concentration of 1 U/ml cholesterol oxidase, 1 U/ml cholesterol esterase, 1 U/ml horseradish peroxidase, and 75 μM Amplex Red. The reactions were incubated at 37° C. for 30 min in a black opaque 96 well plate (Greiner) and fluorescence was measured in a microplate reader (Spectramax i3X, Molecular Devices) using 530 nm excitation and 580 emission.
(§4) Cholesterol esters were assayed using a direct method described by Mizoguchi et al (Mizoguchi, 2004). Briefly 150 μl of FC decomposition reagent (45 U/ml bovine catalase and 1 U/ml cholesterol oxidase, in assay buffer described above) was added to 25 μl of sample containing up to 1 mM total cholesterol. Free cholesterol was allowed to decompose overnight at 37° C. and then 75 μl of 4× cholesterol ester detection reagent (1 U/ml cholesterol oxidase, 4 U/ml cholesterol esterase, 24 U/ml horseradish peroxidase, 300 μM Amplex Red) was added. […]

129 Col4a3 KO mice = assay: Alport mouse model, treatment from 4 weeks of age; assay type: in vivo
Description: 129 Col4a3^tm1/Dec/J mice were purchased from Jackson Labs and bred to generate Col4a3 KO mice. Mice were genotyped and selected using the primers: F ([…]), R ([…]) and Rm ([…]) in a PCR reaction (94 C for 5 min, followed by 30 cycles of 30 sec at 95 C, 15 sec at 60 C and 30 sec 72 C, and 1 min at 72 C). 129 Col4A3-KO mice were divided into two groups of 5 mice (males and females) each. At the age of 4 weeks, mice started receiving either vehicle or Cpd G (100 mg/Kg) by oral gavage once daily for 4 weeks. Body weight measurements and spot urine collection was performed once a week. Animals were sacrificed at the end of the treatment at the age of 8 weeks. A late study was also performed to evaluate if treatment of Col4A3-KO mice at time of established disease would prolong mice survival. In this study, mice were treated with Cpd G (100 mg/Kg/day) by daily oral gavage starting at 6 weeks of age and survival was assessed.
as §1, §2, §3
as §4, with “added. Reaction was incubated at 37° C. for 30 min and fluorescence was measured as described above for total cholesterol. 1 mM of cholesterol and 5 μM of cholesterol oleate standards were included as internal controls to validate assay sensibility and specificity.” for “added.”

[3] = concentrations above 10 uM, FIG. 3
[4] = 100 mg/Kg once daily, 4 weeks from age 4 weeks, vs vehicle

With `Cc1oc(-c2cccc(C(F)(F)F)c2)nc1Cn1c(C)cc2cc(C(O)(C(F)(F)F)C(F)(F)F)ccc21` [Cpd C, 1,1,1,3,3,3-Hexafluoro-2-{2-methyl-1-[5-methyl-2-(3-trifluoromethyl-phenyl)-oxazol-4-ylmethyl]-1H-indol-5-yl}-propan-2-ol, reference compound] the Cytotoxicity ([1]; 20 μM) was “significant toxicity”, the Cytotoxicity [1, 3] was “significant toxicity” and the “TOTAL CHOL (blood)” value ([2]; 10 mg/Kg) was 119.8 ± 19.9 mg/dL. The TRIGLYCERIDES (blood) ([2]; 10 mg/Kg) was 110 ± 53.5 mg/dL.
With `O=C(N[C@@H]1CCCC[C@H]1O)c1cnc(OCC(F)(F)F)c(-c2ccc(Cl)c(Cl)c2)c1` [Cpd G, 5-(3,4-dichloro-phenyl)-N-((1R,2R)-2-hydroxy-cyclohexyl)-6-(2,2,2-trifluoro-ethoxy)-nicotinamide] the “TOTAL CHOL (blood)” value ([2]; 30 mg/Kg) was 112.0 ± 13.6 mg/dL, the TRIGLYCERIDES (blood) ([2]; 30 mg/Kg) was 120 ± 18.8 mg/dL and the Albuminuria ([2]; 100 mg/Kg once daily) was “significantly reduce; also recorded: reduced”. The Body weight loss ([2]; 100 mg/Kg once daily) was “significantly reduce; also recorded: reduced”, the “deposition of lipid droplets in the kidneys (Oil Red O staining)” value ([2]; 100 mg/Kg, 28 days) was “significantly reduced” and the “TOTAL CHOL (blood)” value ([2]; 100 mg/Kg) was 101.1 ± 12.8 mg/dL. For the same compound, the TRIGLYCERIDES (blood) ([2]; 100 mg/Kg) was 121 ± 19.3 mg/dL, the “global glomerular sclerosis (blind pathological study of kidney cortex)” value ([2]; 100 mg/Kg/day, 4 weeks) was “reduction” and the interstitial inflammation ([2]; 100 mg/Kg/day, 4 weeks) was “reduction”. For the same compound, the podocyte hyperplasia ([2]; 100 mg/Kg/day, 4 weeks) was “reduction”, the podocyte hypertrophy ([2]; 100 mg/Kg/day, 4 weeks) was “reduction” and the segmental glomerular sclerosis ([2]; 100 mg/Kg/day, 4 weeks) was “reduction”. The tubular microcysts ([2]; 100 mg/Kg/day, 4 weeks) was “reduction”, the “esterified cholesterol content in kidney cortex” value ([2]; 28 days, normalized to total protein) was “reduces accumulation of esterified cholesterol; also recorded: significantly reduced” and the physical appearance ([2]; optimal dose (100 mg/Kg), 3rd and 4th week of treatment) was “better physical appearance”. The “progression to ESRD” value (129 Col4a3 KO mice; 100 mg/Kg once daily, 4 weeks from age 4 weeks) was “delays progression to end stage renal disease; also recorded: delayed progression to ESRD”, the Albuminuria (129 Col4a3 KO mice; [4]) was “significantly less” and the BUN (129 Col4a3 KO mice; [4]) was “significantly less”. The Body weight loss (129 Col4a3 KO mice; [4]) was “lost less weight”, the “mesangial expansion (PAS-stained kidney sections)” value (129 Col4a3 KO mice; [4]) was “significantly less mesangial expansion” and the serum creatinine (129 Col4a3 KO mice; [4]) was “significantly less”. The “lipid accumulation in kidney cortex sections (Oil-red O staining)” value (129 Col4a3 KO mice; 8 week old mice, 28 days treatment) was “reduced” and the “cholesterol ester in kidneys” value (129 Col4a3 KO mice; 8 week old mice, 28 days treatment, normalized to total protein) was “reduces esterified cholesterol accumulation; also recorded: significantly reduced”.
In the case of `O=C(N[C@@H]1CCCC[C@H]1O)c1ccc(OCC(F)(F)F)c(-c2ccc(Cl)c(Cl)c2)n1` [Cpd A, 6-(3,4-Dichlorophenyl)-N-[(1R,2R)-2-hydroxycyclohexyl]-5-(2,2,2-trifluoroethoxy)pyridine-2-carboxamide], the Cytotoxicity ([1]; 20 μM) is reported as “significant toxicity”, the Cytotoxicity [1, 3] is reported as “significant toxicity” and the Albuminuria ([2]; 30 mg/Kg once daily) is reported as “significantly reduce; also recorded: reduced”. For the same compound, the Body weight loss ([2]; 30 mg/Kg once daily) was “significantly reduce; also recorded: reduced”, the “TOTAL CHOL (blood)” value ([2]; 30 mg/Kg) was 104.0 ± 31.6 mg/dL and the TRIGLYCERIDES (blood) ([2]; 30 mg/Kg) was 107 ± 23.9 mg/dL.
